Reference: US7582645B2, “Pyrimidine derivatives for treatment of hyperproliferative disorders” (Bayer Pharmaceuticals Corporation, priority 2003, dated 2009)

Tested on: HCT116 cells
Assay: HCT116 cytotoxic activity assay (Alamar Blue, 72 h)
Type: cell-based
Settings: Homo sapiens, HCT-116, 72 h compound exposure
Procedure: Representative compounds of this invention were tested for cytotoxicity using the above-described assay procedure with the following results: […]

[1] = greater than 500 nM but less than or equal to 2 μM

Nc1ccc(-c2cc(Nc3ccc(Oc4ccnc(Cl)c4)cc3)nc(N)n2)cc1 [Example 116, 6-(4-aminophenyl)-N4*- {4-[(2-chloropyridin-4-yl)oxy]phenyl}pyrimidine-2,4-diamine]
IC50 (less than or equal to 500 nM): ≤ 500 nM

Nc1nc(Nc2ccc(Oc3ccnc(Cl)c3)c(F)c2)cc(-c2ccccc2)n1 [Example 117, N4*-{4-[(2-chloropyridin-4-yl)oxy]-3-fluorophenyl}-6-phenylpyrimidine-2,4-diamine]
IC50 (less than or equal to 500 nM): ≤ 500 nM

Nc1cccc(-c2cc(Nc3ccc(Oc4ccnc(Cl)c4)cc3)nc(N)n2)c1 [Example 118, 6-(3-aminophenyl)-N4*-{4-[(2-chloropyridin-4-yl)oxy]phenyl}pyrimidine-2,4-diamine]
IC50 (less than or equal to 500 nM): ≤ 500 nM

Nc1nc(Nc2cccc(Oc3ccnc(N4CCCCC4)c3)c2)cc(-c2ccccc2)n1 [Example 119, 6-phenyl-N4*-{3-[(2-piperidin-1-ylpyridin-4-yl)oxy]phenyl}pyrimidine-2,4-diamine]
IC50 (less than or equal to 500 nM): ≤ 500 nM

Nc1nc(Nc2cccc(Oc3ccnc(N4CCOCC4)c3)c2)cc(-c2ccccc2)n1 [Example 120, N4*-{3-[(2-morpholin-4-ylpyridin-4-yl)oxy]phenyl}-6-phenylpyrimidine-2,4-diamine]
IC50 (less than or equal to 500 nM): ≤ 500 nM

Nc1nc(Nc2cccc(Oc3ccnc(N4CCCC4)c3)c2)cc(-c2ccccc2)n1 [Example 121, 6-phenyl-N4*-{3-[(2-pyrrolidin-1-ylpyridin-4-yl)oxy]phenyl}pyrimidine-2,4-diamine]
IC50 (less than or equal to 500 nM): ≤ 500 nM

COC[C@@H]1CCCN1c1cc(Oc2cccc(Nc3cc(-c4ccccc4)nc(N)n3)c2)ccn1 [Example 122, N4*-[3-({2-[2-(methoxymethyl)pyrrolidin-1-yl]pyridin-4-yl}oxy)phenyl]-6-phenylpyrimidine-2,4-diamine]
IC50 (greater than 2 μM): > 2000 nM

Nc1nc(Nc2cccc(Oc3ccnc(N4CCC[C@@H]4CO)c3)c2)cc(-c2ccccc2)n1 [Example 123, [(2R)-1-(4-{3-[(2-amino-6-phenylpyrimidin-4-yl)amino]phenoxy}pyridin-2-yl)pyrrolidin-2-yl]methanol]
IC50 (less than or equal to 500 nM): ≤ 500 nM

COCCN(C)c1cc(Oc2cccc(Nc3cc(-c4ccccc4)nc(N)n3)c2)ccn1 [Example 124, N4*-[3-({2-[(2-methoxyethyl)(methyl)amino]pyridin-4-yl}oxy)phenyl]-6-phenylpyrimidine-2,4-diamine]
IC50 (less than or equal to 500 nM): ≤ 500 nM

CC1CCCN1c1cc(Oc2cccc(Nc3cc(-c4ccccc4)nc(N)n3)c2)ccn1 (stereo not drawn) [Example 125, N4*-(3-{[2-(2-methylpyrrolidin-1-yl)pyridin-4-yl]oxy}phenyl)-6-phenylpyrimidine-2,4-diamine]
IC50 (less than or equal to 500 nM): ≤ 500 nM

COCCN(CCOC)c1cc(Oc2cccc(Nc3cc(-c4ccccc4)nc(N)n3)c2)ccn1 [Example 126, N4*-[3-({2-[bis(2-methoxyethyl)amino]pyridin-4-yl}oxy)phenyl]-6-phenylpyrimidine-2,4-diamine]
IC50 (greater than 2 μM): > 2000 nM

Nc1nc(Nc2cccc(Oc3ccnc(N(CCO)CCO)c3)c2)cc(-c2ccccc2)n1 [Example 127, 2,2′-[(4-{3-[(2-amino-6-phenylpyrimidin-4-yl)amino]phenoxy}pyridin-2-yl)imino]diethanol]
IC50 (less than or equal to 500 nM): ≤ 500 nM

Nc1nc(Nc2cccc(Oc3ccnc(N4CCC[C@H]4CO)c3)c2)cc(-c2ccccc2)n1 [Example 128, [(2S)-1-(4-{3-[(2-amino-6-phenylpyrimidin-4-yl)amino]phenoxy}pyridin-2-yl)pyrrolidin-2-yl]methanol]
IC50 [1]: 500 to 2000 nM

Nc1nc(Nc2ccc(Oc3ccnc(N(CCO)CCO)c3)cc2)cc(-c2ccccc2)n1 [Example 129, 2,2′-[(4-{4-[(2-amino-6-phenylpyrimidin-4-yl)amino]phenoxy}pyridin-2-yl)imino]diethanol]
IC50 (less than or equal to 500 nM): ≤ 500 nM

CN1CCN(c2cc(Oc3cccc(Nc4cc(-c5ccccc5)nc(N)n4)c3)ccn2)CC1 [Example 130, N4*-(3-{[2-(4-methylpiperazin-1-yl)pyridin-4-yl]oxy}phenyl)-6-phenylpyrimidine-2,4-diamine]
IC50 [1]: 500 to 2000 nM

Nc1nc(Nc2ccc(Oc3ccnc(N(N)Cc4ccccc4)c3)cc2)cc(-c2ccccc2)n1 [Example 131, N4*-(4-{[2-(1-benzylhydrazino)pyridin-4-yl]oxy}phenyl)-6-phenylpyrimidine-2,4-diamine]
IC50 [1]: 500 to 2000 nM

COC[C@H]1CCCN1c1cc(Oc2ccc(Nc3cc(-c4ccccc4)nc(N)n3)cc2)ccn1 [Example 133, N4*-[4-({2-[(2R)-2-(methoxymethyl)pyrrolidin-1-yl]pyridin-4-yl}oxy)phenyl]-6-phenylpyrimidine-2,4-diamine]
IC50 (less than or equal to 500 nM): ≤ 500 nM

Nc1nc(Nc2ccc(Oc3ccnc(N4CCOCC4)c3)cc2)cc(-c2ccccc2)n1 [Example 134, N4*-{4-[(2-morpholin-4-ylpyridin-4-yl)oxy]phenyl}-6-phenylpyrimidine-2,4-diamine]
IC50 (less than or equal to 500 nM): ≤ 500 nM

CN1CCN(c2cc(Oc3ccc(Nc4cc(-c5ccccc5)nc(N)n4)cc3)ccn2)CC1 [Example 135, N4*-(4-{[2-(4-methylpiperazin-1-yl)pyridin-4-yl]oxy}phenyl)-6-phenylpyrimidine-2,4-diamine]
IC50 [1]: 500 to 2000 nM

COCCN1CCN(c2cc(Oc3ccc(Nc4cc(-c5ccccc5)nc(N)n4)cc3)ccn2)CC1 [Example 136, N4*-[4-({2-[4-(2-methoxyethyl)piperazin-1-yl]pyridin-4-yl}oxy)phenyl]-6-phenylpyrimidine-2,4-diamine]
IC50 [1]: 500 to 2000 nM

COCCN(C)c1cc(Oc2ccc(Nc3cc(-c4ccccc4)nc(N)n3)cc2)ccn1 [Example 137, N4*-[4-({2-[(2-methoxyethyl)(methyl)amino]pyridin-4-yl}oxy)phenyl]-6-phenylpyrimidine-2,4-diamine]
IC50 (less than or equal to 500 nM): ≤ 500 nM

CN(C)CCNc1cc(Oc2ccc(Nc3cc(-c4ccccc4)nc(N)n3)cc2)ccn1 [Example 138, N4*-{4-[(2-{[2-(dimethylamino)ethyl]amino}pyridin-4-yl)oxy]phenyl}-6-phenylpyrimidine-2,4-diamine]
IC50 [1]: 500 to 2000 nM

Nc1nc(Nc2ccc(Oc3ccnc(N4CCCCC4)c3)cc2)cc(-c2ccccc2)n1 [Example 139, 6-phenyl-N4*-{4-[(2-piperidin-1-ylpyridin-4-yl)oxy]phenyl}pyrimidine-2,4-diamine]
IC50 (less than or equal to 500 nM): ≤ 500 nM

COCCN(CCOC)c1cc(Oc2ccc(Nc3cc(-c4ccccc4)nc(N)n3)cc2)ccn1 [Example 140, N4*-[4-({2-[bis(2-methoxyethyl)amino]pyridin-4-yl}oxy)phenyl]-6-phenylpyrimidine-2,4-diamine]
IC50 (less than or equal to 500 nM): ≤ 500 nM

CCN(CC)CCCNc1cc(Oc2ccc(Nc3cc(-c4ccccc4)nc(N)n3)cc2)ccn1 [Example 141, N4*-{4-[(2-{[3-(diethylamino)propyl]amino}pyridin-4-yl)oxy]phenyl}-6-phenylpyrimidine-2,4-diamine]
IC50 [1]: 500 to 2000 nM

Nc1nc(Nc2ccc(Oc3ccnc(NCCCN4CCOCC4)c3)cc2)cc(-c2ccccc2)n1 [Example 142, N4*-[4-({2-[(3-morpholin-4-ylpropyl)amino]pyridin-4-yl}oxy)phenyl]-6-phenylpyrimidine-2,4-diamine]
IC50 (less than or equal to 500 nM): ≤ 500 nM

COc1cc(-c2cc(Nc3ccc(Oc4ccnc(N5CCOCC5)c4)cc3)nc(N)n2)ccc1O [Example 143, 4-[2-amino-6-({4-[(2-morpholin-4-ylpyridin-4-yl)oxy]phenyl}amino)pyrimidin-4-yl]-2-methoxyphenol]
IC50 (less than or equal to 500 nM): ≤ 500 nM
